According to patent US12606548B2, “Fungicidal oxadiazoles” (FMC CORPORATION, priority 2019, dated 2026):

Columns and labels:
[1] = test system: Puccinia recondita f. sp. tritici; experiment: Test C: test suspension sprayed on wheat seedlings, inoculated next day with Puccinia recondita f. sp. tritici (wheat leaf rust), visual disease rating; format: in vivo; conditions: for Test C rating (% disease control): relative to the controls
Excerpt: General protocol for preparing test suspensions for Tests A-C: the test compounds were first dissolved in acetone in an amount equal to 3% of the final volume and then suspended at the desired concentration (in ppm) in acetone and purified water (50/50 mix by volume) containing 250 ppm of the surfactant PEG400 (polyhydric alcohol esters). The resulting test suspensions were then used in Tests A-C. The test suspension was sprayed to the point of run-off on wheat seedlings. The following day the seedlings were inoculated with a spore suspension of Puccinia recondita f. sp. tritici; (the causal agent of wheat leaf rust) and incubated in a saturated atmosphere at 20° C., for 24 h, and then moved to a growth chamber at 20° C., for 6 days, after which time visual disease ratings were made. […] A dash (-) indicates the compound was not tested. The test suspensions were sprayed at the concentration listed in the column “Rate in ppm”, unless otherwise indicated.

Phakopsora pachyrhizi = experiment: Test A: test suspension sprayed on soybean seedlings, inoculated next day with Phakopsora pachyrhizi (Asian soybean rust), visual disease rating; format: in vivo; conditions: for Test A rating (% disease control): relative to the controls
Excerpt: General protocol for preparing test suspensions for Tests A-C: the test compounds were first dissolved in acetone in an amount equal to 3% of the final volume and then suspended at the desired concentration (in ppm) in acetone and purified water (50/50 mix by volume) containing 250 ppm of the surfactant PEG400 (polyhydric alcohol esters). The resulting test suspensions were then used in Tests A-C. The test suspension was sprayed to the point of run-off on soybean seedlings. The following day the seedlings were inoculated with a spore suspension of Phakopsora pachyrhizi (the causal agent of Asian soybean rust) and incubated in a saturated atmosphere at 22° C., for 24 h and then moved to a growth chamber at 22° C., for 8 days, after which time visual disease ratings were made. […] A dash (-) indicates the compound was not tested. The test suspensions were sprayed at the concentration listed in the column “Rate in ppm”, unless otherwise indicated.

## CC(C)ON=Cc1cnn(Cc2ccc(-c3noc(C(F)(F)F)n3)cc2)c1 [compound 388]
[1]; Rate 10 ppm test suspension
  Test C rating (% disease control): 100%
Phakopsora pachyrhizi; Rate 10 ppm test suspension
  Test A rating (% disease control): 100%

## CNC(=O)c1cnn(CCCc2ccc(-c3noc(C(F)(F)F)n3)cc2)c1 [compound 415]
[1]; Rate 10 ppm test suspension
  Test C rating (% disease control): 96%
Phakopsora pachyrhizi; Rate 10 ppm test suspension
  Test A rating (% disease control): 100%

## O=C(OCCCl)c1cnn(Cc2ccc(-c3noc(C(F)(F)F)n3)cc2)c1 [compound 477]
[1]; Rate 10 ppm test suspension
  Test C rating (% disease control): 100%
Phakopsora pachyrhizi; Rate 10 ppm test suspension
  Test A rating (% disease control): 100%

## N#Cc1cnn(CCCc2ccc(-c3noc(C(F)(F)F)n3)cc2)c1 [compound 435]
[1]; Rate 10 ppm test suspension
  Test C rating (% disease control): 74%
Phakopsora pachyrhizi; Rate 10 ppm test suspension
  Test A rating (% disease control): 100%

## N#Cc1cccn(Cc2ccc(-c3noc(C(F)(F)F)n3)cc2)c1=O [compound 417]
[1]; Rate 10 ppm test suspension
  Test C rating (% disease control): 100%
Phakopsora pachyrhizi; Rate 10 ppm test suspension
  Test A rating (% disease control): 100%

## FC(F)(F)c1nc(-c2ccc(Cn3cc4cc(Br)cnc4n3)cc2)no1 [compound 414]
[1]; Rate 10 ppm test suspension
  Test C rating (% disease control): 100%
Phakopsora pachyrhizi; Rate 10 ppm test suspension
  Test A rating (% disease control): 100%

## FC(F)(F)c1nc(-c2ccc(Cn3cc4c(I)ccnc4n3)cc2)no1 [compound 445]
[1]; Rate 10 ppm test suspension
  Test C rating (% disease control): 99%
Phakopsora pachyrhizi; Rate 10 ppm test suspension
  Test A rating (% disease control): 100%

## CCC(C)OC(=O)c1cnn(Cc2ccc(-c3noc(C(F)(F)F)n3)cc2)c1 (stereo not shown) [compound 481]
[1]; Rate 10 ppm test suspension
  Test C rating (% disease control): 100%
Phakopsora pachyrhizi; Rate 10 ppm test suspension
  Test A rating (% disease control): 100%

## CCCOC(=O)c1cnn(Cc2ccc3cc(-c4noc(C(F)(F)F)n4)ccc3c2)c1 [compound 416]
[1]; Rate 50 ppm test suspension
  Test C rating (% disease control): 0%
Phakopsora pachyrhizi; Rate 50 ppm test suspension
  Test A rating (% disease control): 77%

## COC(=O)c1cnn(CCCc2ccc(-c3noc(C(F)(F)F)n3)cc2)c1 [compound 427]
[1]; Rate 50 ppm test suspension
  Test C rating (% disease control): 67%
Phakopsora pachyrhizi; Rate 50 ppm test suspension
  Test A rating (% disease control): 100%

## CCCOC(=O)c1cnn(Cc2cc(OC)c(-c3noc(C(F)(F)F)n3)s2)c1 [compound 439]
[1]; Rate 10 ppm test suspension
  Test C rating (% disease control): 0%
Phakopsora pachyrhizi; Rate 10 ppm test suspension
  Test A rating (% disease control): 0%

## CCNC(=O)C1=NOC(Cc2ccc(-c3noc(C(F)(F)F)n3)s2)C1 (racemic) [compound 369]
[1]; 50 ppm test suspension
  Test C disease control rating: 100%
Phakopsora pachyrhizi; 50 ppm test suspension
  Test A disease control rating: 100%

## CSCC(=O)COC(=O)c1cnn(Cc2ccc(-c3noc(C(F)(F)F)n3)cc2)c1 [compound 434]
[1]; Rate 10 ppm test suspension
  Test C rating (% disease control): 98%
Phakopsora pachyrhizi; Rate 10 ppm test suspension
  Test A rating (% disease control): 100%

## CCOC(=O)c1cnn(Cc2ccc3cc(-c4noc(C(F)(F)F)n4)ccc3c2)c1 [compound 457]
[1]; Rate 50 ppm test suspension
  Test C rating (% disease control): 0%
Phakopsora pachyrhizi; Rate 50 ppm test suspension
  Test A rating (% disease control): 77%

## 3-[5-[(4-bromo-1H-pyrazol-1-yl)methyl]-2-thienyl]-5-(trifluoromethyl)-1,2,4-oxadiazole [Compound 71]
[1]; 10 ppm test suspension
  Test C disease control rating: 74%
Phakopsora pachyrhizi; 10 ppm test suspension
  Test A disease control rating: 100%

## 1-[[4-[5-(trifluoromethyl)-1,2,4-oxadiazol-3-yl]phenyl]methyl]-1H-pyrazolo[3,4-b]pyridine [Compound 147]
[1]; 10 ppm test suspension
  Test C disease control rating: 68%
Phakopsora pachyrhizi; 10 ppm test suspension
  Test A disease control rating: 100%

## CCOC(=O)C1=NOC(Cc2ccc(-c3noc(C(F)(F)F)n3)s2)C1 (racemic) [compound 366]
[1]; 50 ppm test suspension
  Test C disease control rating: 100%
Phakopsora pachyrhizi; 50 ppm test suspension
  Test A disease control rating: 100%

## CN(CC#N)C(=O)c1cnn(Cc2ccc(-c3noc(C(F)(F)F)n3)cc2)c1 [compound 379]
[1]; Rate 10 ppm test suspension
  Test C rating (% disease control): 97%
Phakopsora pachyrhizi; Rate 10 ppm test suspension
  Test A rating (% disease control): 100%

## CCOC(=O)c1cncn(Cc2ccc(-c3noc(C(F)(F)F)n3)cc2)c1=O [compound 418]
[1]; Rate 10 ppm test suspension
  Test C rating (% disease control): 99%
Phakopsora pachyrhizi; Rate 10 ppm test suspension
  Test A rating (% disease control): 100%

## CCCOC(=O)c1cnn(C(C)c2ccc(-c3noc(C(F)(F)F)n3)s2)c1 (racemic) [compound 493]
[1]; Rate 10 ppm test suspension
  Test C rating (% disease control): 100%
Phakopsora pachyrhizi; Rate 10 ppm test suspension
  Test A rating (% disease control): 100%

## CCCON=Cc1cnn(Cc2ccc(-c3noc(C(F)(F)F)n3)cc2)c1 [compound 385]
[1]; Rate 10 ppm test suspension
  Test C rating (% disease control): 100%
Phakopsora pachyrhizi; Rate 10 ppm test suspension
  Test A rating (% disease control): 100%

## COC(=O)c1cccn(Cc2ccc(-c3noc(C(F)(F)F)n3)cc2)c1=O [compound 422]
[1]; Rate 10 ppm test suspension
  Test C rating (% disease control): 93%
Phakopsora pachyrhizi; Rate 10 ppm test suspension
  Test A rating (% disease control): 90%

## CCOC(=O)c1cnn(CCCc2ccc(-c3noc(C(F)(F)F)n3)cc2)c1 [compound 428]
[1]; Rate 50 ppm test suspension
  Test C rating (% disease control): 100%
Phakopsora pachyrhizi; Rate 50 ppm test suspension
  Test A rating (% disease control): 100%

## CCOC(=O)c1cnn(Cc2ccc(-c3noc(C(F)(F)F)n3)cn2)c1 [compound 424]
[1]; Rate 10 ppm test suspension
  Test C rating (% disease control): 96%
Phakopsora pachyrhizi; Rate 10 ppm test suspension
  Test A rating (% disease control): 100%

## O=C(OCCBr)c1cnn(Cc2ccc(-c3noc(C(F)(F)F)n3)cc2)c1 [compound 478]
[1]; Rate 50 ppm test suspension
  Test C rating (% disease control): 19%
Phakopsora pachyrhizi; Rate 50 ppm test suspension
  Test A rating (% disease control): 81%

## O=C1N(Cc2ccc(-c3noc(C(F)(F)F)n3)cc2)CCc2cncn21 [compound 462]
[1]; Rate 10 ppm test suspension
  Test C rating (% disease control): 89%
Phakopsora pachyrhizi; Rate 10 ppm test suspension
  Test A rating (% disease control): 100%

## CC(C)CCOC(=O)c1cnn(Cc2ccc(-c3noc(C(F)(F)F)n3)cc2)c1 [compound 480]
[1]; Rate 10 ppm test suspension
  Test C rating (% disease control): 98%
Phakopsora pachyrhizi; Rate 10 ppm test suspension
  Test A rating (% disease control): 100%

## CCOC(=O)c1cc(C)n(Cc2ccc(-c3noc(C(F)(F)F)n3)cc2)n1 [compound 110]
[1]; 10 ppm test suspension
  Test C disease control rating: 91%
Phakopsora pachyrhizi; 10 ppm test suspension
  Test A disease control rating: 100%

## CC(=O)Nc1cnn(Cc2ccc(-c3noc(C(F)(F)F)n3)cc2)c1 [compound 441]
[1]; Rate 10 ppm test suspension
  Test C rating (% disease control): 9%
Phakopsora pachyrhizi; Rate 10 ppm test suspension
  Test A rating (% disease control): 87%

## CCCCCOC(=O)c1cnn(Cc2ccc(-c3noc(C(F)(F)F)n3)cc2)c1 [compound 447]
[1]; Rate 10 ppm test suspension
  Test C rating (% disease control): 100%
Phakopsora pachyrhizi; Rate 10 ppm test suspension
  Test A rating (% disease control): 100%

## COc1ccc(C(O)c2ccc(-c3noc(C(F)(F)F)n3)cc2)cc1 (racemic) [compound 309]
[1]; 50 ppm test suspension
  Test C disease control rating: 68%
Phakopsora pachyrhizi; 50 ppm test suspension
  Test A disease control rating: 100%

## CCOC(=O)C1(Cc2ccc(-c3noc(C(F)(F)F)n3)cc2)CCCNC1=O (stereo not shown) [compound 432]
[1]; Rate 50 ppm test suspension
  Test C rating (% disease control): 92%
Phakopsora pachyrhizi; Rate 50 ppm test suspension
  Test A rating (% disease control): 100%

## FC(F)(F)c1nc(-c2ccc(Cn3cc(I)cn3)cc2)no1 [compound 383]
[1]; Rate 10 ppm test suspension
  Test C rating (% disease control): 68%
Phakopsora pachyrhizi; Rate 10 ppm test suspension
  Test A rating (% disease control): 71%

## FC(F)(F)c1nc(-c2ccc(Cn3cc4cnc(Cl)nc4n3)cc2)no1 [compound 433]
[1]; Rate 10 ppm test suspension
  Test C rating (% disease control): 99%
Phakopsora pachyrhizi; Rate 10 ppm test suspension
  Test A rating (% disease control): 100%

## C=C(C#N)COC(=O)c1cnn(Cc2ccc(-c3noc(C(F)(F)F)n3)cc2)c1 [compound 486]
[1]; Rate 10 ppm test suspension
  Test C rating (% disease control): 89%
Phakopsora pachyrhizi; Rate 10 ppm test suspension
  Test A rating (% disease control): 100%

## CCOC(=O)c1cnn(CCCc2ccc(-c3noc(C(F)(F)F)n3)cc2)c1 [compound 437]
[1]; Rate 10 ppm test suspension
  Test C rating (% disease control): 86%
Phakopsora pachyrhizi; Rate 10 ppm test suspension
  Test A rating (% disease control): 100%

## CS(=O)(=O)Nc1cnn(Cc2ccc(-c3noc(C(F)(F)F)n3)cc2)c1 [compound 442]
[1]; Rate 10 ppm test suspension
  Test C rating (% disease control): 0%
Phakopsora pachyrhizi; Rate 10 ppm test suspension
  Test A rating (% disease control): 44%

## O=C(OCc1ccccn1)c1cnn(Cc2ccc(-c3noc(C(F)(F)F)n3)cc2)c1 [compound 479]
[1]; Rate 10 ppm test suspension
  Test C rating (% disease control): 100%
Phakopsora pachyrhizi; Rate 10 ppm test suspension
  Test A rating (% disease control): 100%

## C=C(Cl)COC(=O)c1cnn(Cc2ccc(-c3noc(C(F)(F)F)n3)cc2)c1 [compound 482]
[1]; Rate 10 ppm test suspension
  Test C rating (% disease control): 100%
Phakopsora pachyrhizi; Rate 10 ppm test suspension
  Test A rating (% disease control): 100%

## CCON=Cc1cnn(Cc2ccc(-c3noc(C(F)(F)F)n3)cc2)c1 [compound 384]
[1]; Rate 10 ppm test suspension
  Test C rating (% disease control): 100%
Phakopsora pachyrhizi; Rate 10 ppm test suspension
  Test A rating (% disease control): 100%

## COc1ccn(Cc2ccc(-c3noc(C(F)(F)F)n3)cc2)c(=O)c1 [compound 421]
[1]; Rate 10 ppm test suspension
  Test C rating (% disease control): 100%
Phakopsora pachyrhizi; Rate 10 ppm test suspension
  Test A rating (% disease control): 100%
